We go through one compound from PubChem BioAssay AID623928 (NMMLSC, 2012).

For orientation: LC50 means the concentration that kills 50% of the test population.

The subject of the series is Fa2N-4 hepatocyte viability, ATP luminescence, 24 h. In words: Fa2N-4 hepatocyte viability loss – Fa2N-4 cells, cytotoxicity control for GPR30 and estrogen receptor ligands, late-stage follow-up (AID 623928).

SMILES strings stand for the structures. Calls of active or inactive are those of the source.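 The calls were made as follows: active = liver cell toxicity, with the dose killing half the cells under 10 micromolar; inactive = the rest.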

With `CC(=O)c1ccc2c(c1)[C@@H]1C=CC[C@@H]1[C@H](c1cc3c(cc1Br)OCO3)N2`, the LC50 is > 50 µM (inactive).
